Reference: PMC4398458, “Reversible Linkage of Two Distinct Small Molecule Inhibitors of Myc Generates a Dimeric Inhibitor with Improved Potency That Is Active in Myc Over-Expressing Cancer Cell Lines” (PLoS ONE, 2015)

Experiments:
[1] = target: T1, Myc:Max heterodimers in complex with E-box DNA (Homo sapiens, UniProt P01106); test: Electrophoretic mobility shift assay (EMSA), Myc:Max heterodimer binding to DNA; assay type: biochemical; conditions: cell-free EMSA, E-box oligonucleotide
T1 construct: c-Myc residues Asn352 to Ala439; 6xHis (N); TEV cleavage site (N); purchased Cayman Chemical (Myc, custom expression); Sino Biologicals (Max) #12885-H20B (Max); host or cells: E. coli BL21StarDE3 (Myc)
T1 sequence (P01106 with tags, fused parts or gaps): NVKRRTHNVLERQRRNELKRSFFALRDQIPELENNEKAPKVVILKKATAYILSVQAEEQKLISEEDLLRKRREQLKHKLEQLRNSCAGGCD
Method: Human c-Myc (NP_002458.2) containing the bHLH-LZ domain was cloned into a modified pET21a vector and then transformed into the BL21StarDE3 expression system, expressed, and purified at Cayman Chemical. The construct consists of an N-terminal 6xHis tag with a TEV cleavage site, c-Myc residues Asn352 to Ala439, and a GGCD C-terminal extension (molecular weight 12.9 kDa). Compounds were added to 200 ng c-Myc in reaction buffer (100 mM KCL, 1 mM DTT, 1 mM EDTA, 50 mM Tris pH7.4, 5mM MgCl2, 0.002% NP40) and incubated for 60 minutes at room temperature. […] Finally, annealed double-stranded E-box containing DNA oligonucleotide with sequence 5’-[…]-3’ was added to a final concentration of 100 nM for twenty minutes incubation at room temperature. The final concentration of DMSO was kept constant at 2%. The protein-DNA complexes (final volume 10 μl) were resolved on NativePAGE Novex 4–16% Bis-Tris Protein Gels (Life technologies, #BN1002BOX) at 4°C with pre-chilled TBE (89 mM Tris-borate, 1 mM EDTA) at 125V for 90 minutes. SYBR Green EMSA Nucleotide Acid gel stain (Molecular Probes, #E33075) was used to stain dsDNA and DNA-protein complexes. Images were captured with an Alpha Innotech FluorChem Q imager installed with AlphaView software.
The formation of the Myc:Max heterodimer is required for its ability to bind to DNA sequences and trigger transcriptional activation of Myc-dependent genes. […]

[2] = target: T2, Max:Max homodimers in complex with E-box DNA (Homo sapiens, UniProt P61244); test: Electrophoretic mobility shift assay (EMSA), Max:Max homodimer binding to DNA; assay type: biochemical; conditions: cell-free EMSA, E-box oligonucleotide
T2 construct: His-tagged and GST-tagged full-length human Max protein; purchased Sino Biologicals #12885-H20B

Daudi cells = test: Cell proliferation / viability assay and Bliss synergy analysis; assay type: cell-based; conditions: concentrations up to 30 μM, 3 days
Method: K562 (CCL-243), Daudi (CCL-213), Raji (CCL-86) and MV4-11(CCL-9591) cells were purchased directly from American Type Culture Collection (Manassas, VA) and routinely cultured under recommended conditions. Growth and proliferation was determined by use of Cell Titer 96 Aqueous One Solution (Promega, Madison, WI). All cells were plated at 10,000 cells per well in growth media in a clear 96 well plate. After 3 days of compound treatment reagent was added, and absorbance at 490 nm was read after incubation for 4 hours at 37°C. A control plate of compound diluted in media at the same concentrations was treated in a similar way and these values subtracted from the cell plate data to control for any compound interference in the assay. Synergy was determined using the Bliss model of independence.
We screened pairwise combinations of monomers from our libraries in a cell proliferation assay. Increasing concentrations of each compound were dosed in an 8x6 matrix format and their effects on cell proliferation monitored. […] The majority of the combinations were additive in nature, a result consistent with the combination of the two parent ligands C01 and C02 (S1 Fig.). We identified a number of combinations that were synergistic, and representative graphs showing dose dependent inhibition of proliferation with 2 different combinations (E07+N12 and E08+N11) are shown (Fig. 2 A and B). There was no activity of the individual compounds E07, E08, N12, or N11 in the proliferation assay at concentrations up to 30 μM.
Our cell-free experiments had clearly shown that the ability for self-assembly of the dimer was important in driving the improved inhibitory effect versus the Myc protein. To test this in a cellular context we compared the effect on cell viability of the E08+N11 dimer versus its non-dimerizable control combination E08+C11. […] Similar effects on cell viability and Myc protein levels were also observed for the dimer E07+N12 but not its non-dimerizable control E07+C12 (S5 Fig.).

Myc:Max interaction = target: T3, Myc:Max interaction (Homo sapiens, UniProt P01106); test: Cell-free Myc:Max ELISA; assay type: biochemical; conditions: average with standard deviation; combinations as equimolar (1:1) titrations, concentration of each monomer; read-out: ELISA (IC50), inhibition of cell-free MYC-MAX heterodimer formation
T3 construct: purchased Origene (Myc); Sino Biologicals (Max)
T3 sequence (P01106 whole entry): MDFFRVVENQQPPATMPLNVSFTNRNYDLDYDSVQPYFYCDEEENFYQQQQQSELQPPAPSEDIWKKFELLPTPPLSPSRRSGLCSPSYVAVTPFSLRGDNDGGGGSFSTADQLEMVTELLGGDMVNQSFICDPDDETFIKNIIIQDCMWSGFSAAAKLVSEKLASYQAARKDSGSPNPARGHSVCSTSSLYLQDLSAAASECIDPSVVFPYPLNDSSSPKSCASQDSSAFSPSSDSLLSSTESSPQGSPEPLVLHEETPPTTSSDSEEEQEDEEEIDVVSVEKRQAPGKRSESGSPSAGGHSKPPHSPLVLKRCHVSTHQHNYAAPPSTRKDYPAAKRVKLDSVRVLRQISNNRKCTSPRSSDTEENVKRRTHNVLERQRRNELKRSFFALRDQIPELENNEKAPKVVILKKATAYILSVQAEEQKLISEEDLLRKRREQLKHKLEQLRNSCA
Method: High binding 96-well plates were coated with GST-conjugated full-length Max protein (Sino Biologicals) at 1ng/μL in 100μl of PBS overnight at 4°C. The plate was washed 4x 200 μl/well with PBS and blocked in 200 μl/well of 5% nonfat dry milk in PBS for 2 hours at room temperature. […] Compounds were serially diluted in 100% DMSO and then sequentially diluted […] into the Myc solution before incubation for one hour at room temperature. For internal consistency, final DMSO concentrations were kept at 2%. The blocked plate was washed 4x 200μl/well with Buffer A, before addition of 100 μl of the Myc compound mixture. Plates were incubated for four hours at RT, and washed 4x 200 μl Buffer A/well. Anti-Myc antibody (Cell Signaling) was diluted 1:1000 in 5% nonfat dry milk in Buffer A. 100 μL/well diluted primary antibody was added to each well and incubated for one hour at room temperature. Plates were washed 4x 200 μl/well Buffer A. HRP-conjugated goat anti-rabbit antibody (GE Healthcare) was diluted 1:5000 in 5% nonfat dry milk in Buffer A. 100 μL/well diluted secondary antibody was added to each well and incubated for thirty minutes at room temperature. The plates were washed 4x 200 μL/well Buffer A. 50 μL/well of FEMTO chemiluminescent reagent (Thermo Scientific) was added, and luminescence was immediately read on a Victor X5 plate reader (PerkinElmer) with a 0.1 sec integration time. IC50s were generated through non-linear fitting of data with prism (GraphPad).
We next asked whether the binding of these dimers to Myc could disrupt the interaction with its transcriptional partner Max. We developed an ELISA using purified Myc and Max protein that allowed us to measure effects on Myc:Max binding. The ELISA plate was initially coated with Max protein and the compounds pre-incubated with Myc protein prior to addition to the Max-coated plate. After extensive washing, Myc binding to Max was detected using an anti-Myc antibody. […] We observe similar effects for the dimeric inhibitor E08+N11 (Table 1).

[3] = target: T4, His-tagged bHLH-LZ domain of human Myc protein (aa353-439) (Homo sapiens, UniProt P01106); test: Surface Plasmon Resonance binding to immobilized Myc; conditions: average KD, equilibrium fit, 25°C; combinations as equimolar titrations; read-out: SPR (Kd), direct MYC binding
T4 construct: human Myc protein (aa353-439, Cayman Chemicals, Ann Arbor, MI); purchased Cayman Chemicals
T4 sequence (P01106 368-454): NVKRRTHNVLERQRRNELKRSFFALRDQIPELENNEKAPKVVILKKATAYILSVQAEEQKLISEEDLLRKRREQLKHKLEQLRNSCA
Method: All SPR experiments were performed on a Bio-Rad XPR36 instrument at 25°C. His-tagged bHLH-LZ domain of human Myc protein (aa353-439, Cayman Chemicals, Ann Arbor, MI) was immobilized in running buffer (20 mM Na-phosphate, pH 7.5, 300 mM NaCl, 4 mM KCl,. 05% Tween20) in the absence of DMSO at 25μL/min for 400 seconds on Bio-Rad HTE (Ni-NTA) chips with a resulting RU value of about 4500 after immobilization. Compound binding was analyzed in the same running buffer with a final DMSO concentration of 2%. Compounds were injected at 30μL/min for 180 seconds with a dissociation time of 300 seconds. Injections consisted of 5 concentrations of compounds plus a blank channel for reference that flowed over all immobilized ligands in a matrix format. Regeneration steps were not required due to the rapid dissociation of compounds. Equilibrium fits were performed with the ProteOn software after inter-spot and reference channel subtractions.
We next analyzed whether these dimeric inhibitors could directly bind to Myc. To do this we developed a Surface Plasma Resonance (SPR) assay to compare the binding affinities of the monomers to that of the dimeric inhibitors. We immobilized the bHLHZip domain of Myc to the surface of a Ni-NTA chip via a His-tag and measured binding affinities for the monomers or dimers. […] We observed similar data with the E08+N11 dimer.

Max = Max (human, UniProt P61244 1-160); test: EMSA; Max:Max homodimer, no Myc; EMSA: 100 mM KCl, 1 mM DTT, 1 mM EDTA, 50 mM Tris pH 7.4, 5 mM MgCl2, 0.002% NP40, 2% DMSO, room temperature; 200 ng Myc, 350 ng Max, 100 nM DNA, 10 ul; gel run in TBE at 4 C; conditions: protein: commercial; tags: His and GST; chain copies: 2; label: none (SYBR Green stain); (only one strand given)
Sequence of Max (P61244 whole entry): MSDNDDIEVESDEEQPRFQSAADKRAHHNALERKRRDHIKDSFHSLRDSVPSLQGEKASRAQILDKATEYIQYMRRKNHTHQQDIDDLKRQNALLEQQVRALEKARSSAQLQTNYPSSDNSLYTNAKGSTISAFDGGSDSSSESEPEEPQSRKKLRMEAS

## O=C(NCc1cccc(B(O)O)c1)c1ccccc1Nc1ccc([N+](=O)[O-])c2nonc12 [E07]
[1]
  effect on Myc:Max complex binding to DNA (gel mobility shift): Neither of the two monomers, E07 or N12, had any noticeable effect
[2]
  effect on Max:Max complex binding to DNA (gel mobility shift): Neither of the two monomers, E07 or N12, had any noticeable effect
Daudi cells
  activity of the individual compounds in the proliferation assay: no activity
Myc:Max interaction
  IC50: 24 ± 7.4 µM
[3]
  Kd: 42 ± 10 µM

## CCc1ccc(/C=C2\SC(=O)N(CC[C@@H]3C[C@@H]4C=C[C@H]3C4)C2=O)cc1 [C12]
Myc:Max interaction
  IC50: > 30 µM
[3]
  Kd: > 50 µM

## O=C(NCc1ccc(B(O)O)cc1)c1ccccc1Nc1ccc([N+](=O)[O-])c2nonc12 [E08]
Daudi cells
  activity of the individual compounds in the proliferation assay: no activity
Myc:Max interaction
  IC50: > 30 µM
[3]
  Kd: 47 ± 9 µM

## CCc1ccc(/C=C2\SC(=O)N(CCNC(=O)[C@@H]3C[C@H]4C=C[C@H]3C4)C2=O)cc1 [C11]
Myc:Max interaction
  IC50: > 30 µM
[3]
  Kd: > 50 µM

## CCc1ccc(/C=C2\SC(=O)N(CC[C@@H]3C[C@H]4C[C@@H]3[C@H](O)[C@@H]4O)C2=O)cc1 [N12]
[1]
  effect on Myc:Max complex binding to DNA (gel mobility shift): Neither of the two monomers, E07 or N12, had any noticeable effect
[2]
  effect on Max:Max complex binding to DNA (gel mobility shift): Neither of the two monomers, E07 or N12, had any noticeable effect
Daudi cells
  activity of the individual compounds in the proliferation assay: no activity
Myc:Max interaction
  IC50: > 30 µM
[3]
  Kd: > 50 µM

## NC(=O)c1ccccc1Nc1ccc([N+](=O)[O-])c2nonc12 [C02, 2-((7-Nitrobenzo[c][1,2,5]oxadiazol-4-yl)amino)benzamide, reference compound]
Myc:Max interaction
  IC50: > 30 µM

## CCc1ccc(/C=C2\SC(=O)N(CCNC(=O)[C@@H]3C[C@@H]4C[C@H]3[C@@H](O)[C@H]4O)C2=O)cc1 [N11]
Daudi cells
  activity of the individual compounds in the proliferation assay: no activity
Myc:Max interaction
  IC50: > 30 µM
[3]
  Kd: > 50 µM

## CCc1ccc(/C=C2\SC(=O)NC2=O)cc1 [C01, reference compound]
Myc:Max interaction
  IC50: > 30 µM

B1: E-box oligonucleotide (dsDNA)
DNA 1: GATCAGTTGACCACGTGGTCTGGG
DNA 2: CCCAGACCACGTGGTCAACTGATC
Max
  binding result: binds
